Source: patent US11370798B2 (Vertex Pharmaceuticals Incorporated, priority 2012, dated 2022)

The compounds below were run on HCT116 colorectal cancer cells (assay: Cisplatin sensitization assay (96 h cell viability MTS)). Settings: compound and Cisplatin added simultaneously, Cisplatin sensitization value.
Assay type: cell-based
How it was run: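 Compound and cisplatin added together as a full matrix of 2-fold serial dilutions from a top final concentration of 10 μM; cells incubated 96 h at 37° C, 5% CO2. Viability then read by MTS after 1 h further incubation; sensitization value reported in μM bins.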
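Further: Test-compound concentration that lowers the Cisplatin IC50 by a set fold.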

SMILES	Cisplatin Sensitization Assay
Nc1nn2cc(F)cnc2c1C(=O)Nc1cnccc1N1CCN2CCC[C@H]2C1 [I-N-21, (S)-2-amino-6-fluoro-N-(4-(hexahydropyrrolo[1,2-a]pyrazin-2(1H)-yl)pyridin-3-yl)pyrazolo[1,5-a]pyrimidine-3-carboxamide]	+++ (Cisplatin sensitization value of <0.02 μM)
C[C@@H]1CN(C2COC2)CCN1c1ccncc1NC(=O)c1c(N)nn2cc(F)cnc12 [I-N-23, (R)-2-amino-6-fluoro-N-(4-(2-methyl-4-(oxetan-3-yl)piperazin-1-yl)pyridin-3-yl)pyrazolo[1,5-a]pyrimidine-3-carboxamide]	+++ (Cisplatin sensitization value of <0.02 μM)
C[C@H]1CN(C2COC2)CCN1c1ccncc1NC(=O)c1c(N)nn2cc(F)cnc12 [I-N-24, (S)-2-amino-6-fluoro-N-(4-(2-methyl-4-(oxetan-3-yl)piperazin-1-yl)pyridin-3-yl)pyrazolo[1,5-a]pyrimidine-3-carboxamide]	+++ (Cisplatin sensitization value of <0.02 μM)
Nc1nn2cc(F)cnc2c1C(=O)Nc1cnccc1-n1cccn1 [I-N-26, N-(4-(1H-pyrazol-1-yl)pyridin-3-yl)-2-amino-6-fluoropyrazolo[1,5-a]pyrimidine-3-carboxamide]	+ (Cisplatin sensitization value>0.2 μM but <5 μM)
Nc1nn2cc(F)cnc2c1C(=O)Nc1cnccc1-n1cnc(C(F)(F)F)c1 [I-N-27, 2-amino-6-fluoro-N-(4-(4-(trifluoromethyl)-1H-imidazol-1-yl)pyridin-3-yl)pyrazolo[1,5-a]pyrimidine-3-carboxamide]	++ (Cisplatin sensitization value>0.02 μM but <0.2 μM)
Cc1nccn1-c1ccncc1NC(=O)c1c(N)nn2cc(F)cnc12 [I-N-28, 2-amino-6-fluoro-N-(4-(2-methyl-1H-imidazol-1-yl)pyridin-3-yl)pyrazolo[1,5-a]pyrimidine-3-carboxamide]	+++ (Cisplatin sensitization value of <0.02 μM)
Nc1nn2cc(Cl)cnc2c1C(=O)Nc1cnccc1-n1ccnc1 [I-N-29, N-(4-(1H-imidazol-1-yl)pyridin-3-yl)-2-amino-6-chloropyrazolo[1,5-a]pyrimidine-3-carboxamide]	++ (Cisplatin sensitization value>0.02 μM but <0.2 μM)
Cc1nc(C(F)(F)F)cn1-c1ccncc1NC(=O)c1c(N)nn2cc(F)cnc12 [I-N-30, 2-amino-6-fluoro-N-(4-(2-methyl-4-(trifluoromethyl)-1H-imidazol-1-yl)pyridin-3-yl)pyrazolo[1,5-a]pyrimidine-3-carboxamide]	++ (Cisplatin sensitization value>0.02 μM but <0.2 μM)
Nc1nn2cc(F)cnc2c1C(=O)Nc1cnccc1N1CCN(C2COC2)C2CC21 (stereo not drawn) [I-N-31, 2-amino-6-fluoro-N-(4-(5-(oxetan-3-yl)-2,5-diazabicyclo[4.1.0]heptan-2-yl)pyridin-3-yl)pyrazolo[1,5-a]pyrimidine-3-carboxamide]	+ (Cisplatin sensitization value>0.2 μM but <5 μM)
Nc1nn2cc(F)cnc2c1C(=O)Nc1cncc(C2CC2)c1N1CCN(C2COC2)CC1 [I-N-32, 2-amino-N-(5-cyclopropyl-4-(4-(oxetan-3-yl)piperazin-1-yl)pyridin-3-yl)-6-fluoropyrazolo[1,5-a]pyrimidine-3-carboxamide]	++ (Cisplatin sensitization value>0.02 μM but <0.2 μM)
Nc1nn2cc(F)cnc2c1C(=O)Nc1cnccc1N1CCN(C2CC2)CC1 [I-N-33, 2-amino-N-(4-(4-cyclopropylpiperazin-1-yl)pyridin-3-yl)-6-fluoropyrazolo[1,5-a]pyrimidine-3-carboxamide]	+ (Cisplatin sensitization value>0.2 μM but <5 μM)
CC(C)(C)N1CCN(c2ccncc2NC(=O)c2c(N)nn3cc(Cl)cnc23)CC1 [I-N-34, 2-amino-N-(4-(4-(tert-butyl)piperazin-1-yl)pyridin-3-yl)-6-chloropyrazolo[1,5-a]pyrimidine-3-carboxamide]	++ (Cisplatin sensitization value>0.02 μM but <0.2 μM)
CN(C)[C@H]1CCN(c2ccncc2NC(=O)c2c(N)nn3cc(Cl)cnc23)C[C@@H]1O [I-N-35, 2-amino-6-chloro-N-(4-((3S,4S)-4-(dimethylamino)-3-hydroxypiperidin-1-yl)pyridin-3-yl)pyrazolo[1,5-a]pyrimidine-3-carboxamide]	+ (Cisplatin sensitization value>0.2 μM but <5 μM)
CN(C)CC1(O)CCN(c2ccncc2NC(=O)c2c(N)nn3cc(Cl)cnc23)CC1 [I-N-36, 2-amino-6-chloro-N-(4-(4-((dimethylamino)methyl)-4-hydroxypiperidin-1-yl)pyridin-3-yl)pyrazolo[1,5-a]pyrimidine-3-carboxamide]	++ (Cisplatin sensitization value>0.02 μM but <0.2 μM)
CN(C)C1CCN(c2ccncc2NC(=O)c2c(N)nn3cc(Cl)cnc23)CC1 [I-N-37, 2-amino-6-chloro-N-(4-(4-(dimethylamino)piperidin-1-yl)pyridin-3-yl)pyrazolo[1,5-a]pyrimidine-3-carboxamide]	++ (Cisplatin sensitization value>0.02 μM but <0.2 μM)
Nc1nn2cc(F)cnc2c1C(=O)Nc1cncc(Cl)c1N1CCN2CCN(C3COC3)CC2C1 (stereo not drawn) [I-N-38, 2-amino-N-(5-chloro-4-(8-(oxetan-3-yl)hexahydro-1H-pyrazino[1,2-a]pyrazin-2(6H)-yl)pyridin-3-yl)-6-fluoropyrazolo[1,5-a]pyrimidine-3-carboxamide]	++ (Cisplatin sensitization value>0.02 μM but <0.2 μM)
CC(C)N1CCN(c2ccncc2NC(=O)c2c(N)nn3cc(Cl)cnc23)CC1 [I-N-39, 2-amino-6-chloro-N-(4-(4-isopropylpiperazin-1-yl)pyridin-3-yl)pyrazolo[1,5-a]pyrimidine-3-carboxamide]	++ (Cisplatin sensitization value>0.02 μM but <0.2 μM)
CN(C)C1CCCN(c2ccncc2NC(=O)c2c(N)nn3cc(Cl)cnc23)C1 (stereo not drawn) [I-N-40, 2-amino-6-chloro-N-(4-(3-(dimethylamino)piperidin-1-yl)pyridin-3-yl)pyrazolo[1,5-a]pyrimidine-3-carboxamide]	++ (Cisplatin sensitization value>0.02 μM but <0.2 μM)
CN1CCN(c2c(Cl)cncc2NC(=O)c2c(N)nn3cc(Cl)cnc23)CC1 [I-N-41, 2-amino-6-chloro-N-(5-chloro-4-(4-methylpiperazin-1-yl)pyridin-3-yl)pyrazolo[1,5-a]pyrimidine-3-carboxamide]	+++ (Cisplatin sensitization value of <0.02 μM)
CN1CCCN(c2ccncc2NC(=O)c2c(N)nn3cc(Cl)cnc23)CC1 [I-N-43, 2-amino-6-chloro-N-(4-(4-methyl-1,4-diazepan-1-yl)pyridin-3-yl)pyrazolo[1,5-a]pyrimidine-3-carboxamide]	++ (Cisplatin sensitization value>0.02 μM but <0.2 μM)
Nc1nn2cc(Cl)cnc2c1C(=O)Nc1cnccc1N1CCn2ccnc2C1 [I-N-44, 2-amino-6-chloro-N-(4-(5,6-dihydroimidazo[1,2-a]pyrazin-7(8H)-yl)pyridin-3-yl)pyrazolo[1,5-a]pyrimidine-3-carboxamide]	++ (Cisplatin sensitization value>0.02 μM but <0.2 μM)
CN(C)CC1CCN(c2ccncc2NC(=O)c2c(N)nn3cc(Cl)cnc23)CC1 [I-N-45, 2-amino-6-chloro-N-(4-(4-((dimethylamino)methyl)piperidin-1-yl)pyridin-3-yl)pyrazolo[1,5-a]pyrimidine-3-carboxamide]	++ (Cisplatin sensitization value>0.02 μM but <0.2 μM)
COC1(CN(C)C)CCN(c2ccncc2NC(=O)c2c(N)nn3cc(Cl)cnc23)CC1 [I-N-46, 2-amino-6-chloro-N-(4-(4-((dimethylamino)methyl)-4-methoxypiperidin-1-yl)pyridin-3-yl)pyrazolo[1,5-a]pyrimidine-3-carboxamide]	+++ (Cisplatin sensitization value of <0.02 μM)
COCC1CN(c2ccncc2NC(=O)c2c(N)nn3cc(Cl)cnc23)CCN1C (stereo not drawn) [I-N-47, 2-amino-6-chloro-N-(4-(3-(methoxymethyl)-4-methylpiperazin-1-yl)pyridin-3-yl)pyrazolo[1,5-a]pyrimidine-3-carboxamide]	++ (Cisplatin sensitization value>0.02 μM but <0.2 μM)
Nc1nn2cc(Cl)cnc2c1C(=O)Nc1cnccc1N1CCN(C2CCC2)CC1 [I-N-48, 2-amino-6-chloro-N-(4-(4-cyclobutylpiperazin-1-yl)pyridin-3-yl)pyrazolo[1,5-a]pyrimidine-3-carboxamide]	++ (Cisplatin sensitization value>0.02 μM but <0.2 μM)
CN(C)CCN1CCN(c2ccncc2NC(=O)c2c(N)nn3cc(Cl)cnc23)CC1 [I-N-49, 2-amino-6-chloro-N-(4-(4-(2-(dimethylamino)ethyl)piperazin-1-yl)pyridin-3-yl)pyrazolo[1,5-a]pyrimidine-3-carboxamide]	+++ (Cisplatin sensitization value of <0.02 μM)
CN1CCN(c2cc(N)ncc2NC(=O)c2c(N)nn3cc(Cl)cnc23)CC1 [I-N-50, 2-amino-N-(6-amino-4-(4-methylpiperazin-1-yl)pyridin-3-yl)-6-chloropyrazolo[1,5-a]pyrimidine-3-carboxamide]	+ (Cisplatin sensitization value>0.2 μM but <5 μM)
CN1CCN(c2cc(Cl)ncc2NC(=O)c2c(N)nn3cc(Cl)cnc23)CC1 [I-N-52, 2-amino-6-chloro-N-(6-chloro-4-(4-methylpiperazin-1-yl)pyridin-3-yl)pyrazolo[1,5-a]pyrimidine-3-carboxamide]	++ (Cisplatin sensitization value>0.02 μM but <0.2 μM)
CN1CCN(c2ccncc2NC(=O)c2c(N)nn3cc(Cl)cnc23)CC1(C)C [I-N-53, 2-amino-6-chloro-N-(4-(3,3,4-trimethylpiperazin-1-yl)pyridin-3-yl)pyrazolo[1,5-a]pyrimidine-3-carboxamide]	++ (Cisplatin sensitization value>0.02 μM but <0.2 μM)
CC1CN(c2ccncc2NC(=O)c2c(N)nn3cc(Cl)cnc23)CCN1C (stereo not drawn) [I-N-54, 2-amino-6-chloro-N-(4-(3,4-dimethylpiperazin-1-yl)pyridin-3-yl)pyrazolo[1,5-a]pyrimidine-3-carboxamide]	+++ (Cisplatin sensitization value of <0.02 μM)
